In the supplement of paper PMC10307832:

Tests used:
Assay in all cases: relative viability (nuclei count vs DMSO), 5 days (fraction); higher = more cells survive
QS11 = compound: C1CC2=C(C1)C=C(C=C2)OC3=NC(=C4C(=N3)N(C=N4)CC5=CC=C(C=C5)C6=CC=CC=C6)N[C@@H](CC7=CC=CC=C7)CO [QS11]
How it was run: (§1)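 MetaXpress counted nuclei in 4× images of lung cancer cell lines that had been fixed, permeabilised and Hoechst-stained in one step. Before that, cells in 1536-well plates were kept overnight at 37 °C, pinned with five √10-spaced library-drug doses on vehicle-anchored plates, and cultured 5 days without medium change. Viability takes treated-well nuclei over vehicle-well nuclei and uses the median across plates. Plates were accepted only at control CV below 25% and at least one doubling.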

AZ628 = compound: CC1=C(C=C(C=C1)NC(=O)C2=CC(=CC=C2)C(C)(C)C#N)NC3=CC4=C(C=C3)N=CN(C4=O)C [AZ628]
How it was run: as §1

Darinaparsin = compound: C[As](C)SC[C@H](NC(=O)CC[C@H](N)C(=O)O)C(=O)NCC(=O)O [Darinaparsin]
How it was run: as §1

QS11 + Foretinib = compound: C1CC2=C(C1)C=C(C=C2)OC3=NC(=C4C(=N3)N(C=N4)CC5=CC=C(C=C5)C6=CC=CC=C6)N[C@@H](CC7=CC=CC=C7)CO [QS11] + COc1cc2c(Oc3ccc(NC(=O)C4(C(=O)Nc5ccc(F)cc5)CC4)cc3F)ccnc2cc1OCCCN1CCOCC1 [Foretinib] (partner 0.25 µM)
How it was run: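 Lung cancer cell lines in 1536-well plates got either a single drug or a fixed anchor-drug dose together with five library-drug doses (not always all listed) in √10 steps, by pin tool, on the day after seeding. Nuclei were counted after 5 days, and relative viability is the treated-to-vehicle ratio of nuclei counts. Values are medians of duplicate plates.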

Cell Line | relative viability (QS11; 0.08 µM) | relative viability (QS11; 0.253 µM) | relative viability (QS11; 0.8 µM) | relative viability (QS11; 2.53 µM) | relative viability (QS11; 8 µM) | relative viability (AZ628; 0.08 µM) | relative viability (AZ628; 0.253 µM) | relative viability (AZ628; 0.8 µM) | relative viability (AZ628; 2.53 µM) | relative viability (AZ628; 8 µM) | relative viability (Darinaparsin; 0.08 µM) | relative viability (Darinaparsin; 0.8 µM) | relative viability (Darinaparsin; 2.53 µM) | relative viability (Darinaparsin; 8 µM) | relative viability (QS11 + Foretinib; first compound 0.08 µM) | relative viability (QS11 + Foretinib; first compound 0.253 µM) | relative viability (QS11 + Foretinib; first compound 0.8 µM) | relative viability (QS11 + Foretinib; first compound 2.53 µM) | relative viability (QS11 + Foretinib; first compound 8 µM)
NCI-H441 | 0.978 | 1.04 | 0.92 | 0.985 | 0.855 | 0.932 | 1.02 | 0.988 | 1.06 | 0.787 | 1.49 | 1.14 | 0.991 | 1.26 | 1.01 | 1.19 | 0.97 | 0.775 | 0.746
NCI-H460 | 1.05 | 1.02 | 0.777 | 0.96 | 0.796 | 0.977 | 0.996 | 0.908 | 1.04 | 0.673 | 1.1 | 1 | 0.997 | 1.35 | 1.07 | 0.939 | 0.731 | 1.05 | 0.626
NCI-H520 | 0.864 | 1.04 | 1.12 | 1.11 | 1.14 | 1.06 | 0.994 | 0.937 | 0.937 | 0.878 | 1.12 | 0.947 | 0.833 | 1.09 | 0.703 | 1.08 | 1.12 | 0.792 | 0.867
NCI-H596 | 0.931 | 0.833 | 1.15 | 0.969 | 1.09 | 1.05 | 1.03 | 1.1 | 1.06 | 1.01 | 0.937 | 1.05 | 0.938 | 1.05 | 0.979 | 0.743 | 0.924 | 0.841 | 0.97
NCI-H647 | 0.979 | 0.856 | 0.917 | 0.956 | 0.769 | 1.01 | 0.962 | 0.798 | 0.936 | 0.732 | 1.08 | 0.962 | 0.896 | 1.26 | 1.17 | 1.24 | 0.988 | 1.09 | 1.06
NCI-H650 | 0.841 | 0.908 | 1.01 | 0.932 | 0.89 | 1.13 | 1.05 | 1.3 | 1.1 | 1.26 | 0.988 | 1.01 | 0.967 | 0.947 | 1 | 1.11 | 0.994 | 0.924 | 1.02
NCI-H661 | 0.992 | 0.977 | 0.853 | 1.01 | 1.03 | 1.08 | 1.05 | 0.861 | 0.938 | 0.842 | 0.999 | 1.01 | 1.03 | 1.12 | 1 | 1.02 | 0.913 | 1.05 | 1.03
NCI-H727 | 0.989 | 0.975 | 0.867 | 0.935 | 0.752 | 0.777 | 0.531 | 0.389 | 0.543 | 0.294 | 0.895 | 0.884 | 0.986 | 1.04 | 1.2 | 0.888 | 0.829 | 1.06 | 0.869
NCI-H838 | 0.99 | 0.915 | 0.784 | 0.908 | 0.872 | 1.02 | 0.992 | 0.951 | 0.932 | 0.868 | 0.997 | 0.931 | 0.991 | 1.14 | 0.993 | 0.953 | 0.688 | 0.898 | 0.85
NCI-H1299 | 1.07 | 1.04 | 0.91 | 0.94 | 0.797 | 1.1 | 1.09 | 1.04 | 1.2 | 0.84 | 1.07 | 1.01 | 0.978 | 1.12 | 1.14 | 1.11 | 0.956 | 1.04 | 0.948
NCI-H1355 | 0.933 | 0.918 | 0.769 | 0.981 | 0.986 | 1.02 | 0.975 | 0.956 | 0.938 | 0.781 | 1.06 | 0.939 | 0.865 | 1.1 | 1.01 | 0.911 | 0.775 | 0.931 | 1.05
NCI-H1395 | 0.833 | 0.976 | 1 | 0.881 | 0.986 | 1.02 | 0.794 | 0.92 | 0.92 | 0.832 | 0.995 | 0.883 | 0.815 | 0.938 | 0.893 | 0.964 | 1.02 | 1 | 1.09
NCI-H1437 | 0.965 | 1.02 | 0.752 | 0.901 | 0.929 | 0.988 | 0.938 | 0.858 | 1.01 | 1.01 | 1.08 | 1.02 | 0.973 | 1.21 | 1.31 | 1.23 | 0.973 | 1.17 | 1.12
NCI-H1563 | 0.951 | 1.02 | 0.965 | 1.12 | 0.971 | 0.997 | 0.925 | 0.991 | 0.952 | 1.05 | 1.05 | 0.948 | 0.996 | 1.04 | 0.971 | 0.876 | 1.06 | 1.07 | 0.916
NCI-H1623 | 0.912 | 1.03 | 0.862 | 0.871 | 1.04 | 0.992 | 0.979 | 0.604 | 0.858 | 0.615 | 0.925 | 1.06 | 0.975 | 1.02 | 0.807 | 0.829 | 0.751 | 0.775 | 1.01
